Consider six compounds from US8840915B2, “Pharmaceutical compositions for sustained release delivery of peptides” (Foresec Pharmaceuticals, LLC, priority 2006, dated 2014).

A short description of data set [1]: In vitro release of octreotide and Pal-PEG-BA-OCT from formulation in DLPLG85/15 solution in NMP; degradation/acylation by HPLC. The format is physicochemical. How it is done:
(§1) Poly(DL-lactide-co-glycolide) (PLGA) of an 85/15 ratio of lactide to glycolide having a polydispersity of 1.5 (DLPLG85/15, IV: 0.28) was dissolved in N-methyl-2-pyrrolidone (NMP) to obtain a 50% solution by weight.
(§2) An aliquot from each formulation was taken for in vitro release in phosphate buffer at pH 7.4 containing 0.1% sodium azide at 37° C. and the remaining formulation was used to monitor the stability of the peptides and the polymer at room temperature over time. The time points are 0.125, 1, 2, 5, 7, 14, 21, and 28 days. Purity of the peptides in the sample was determined by HPLC. Molecular weight of the polymer was determined by gel permeation chromatography (GPC) using polystyrene standards with known molecular weights.
And more than 50% of the octreotide detected in the releasing medium was degraded or acylated after 28 days. After 28 days, the polymer matrix was dissolved in acetonitrile, and the polymer was precipitated using water. The octreotide was analyzed by HPLC. […] It would be highly advantageous to prevent such interaction between the peptide and the polymer.

Data set [2] is described as follows: Stability of the peptides in liquid polymeric formulations (purity by HPLC, room temperature). The format is physicochemical. The note with it: for Stability of the peptides in liquid polymeric formulations: 6% drug load in 50% DLPLG85/15 in NMP, room temperature, purity by HPLC. As to the method: as §1, §2
(§3) According to prior art, the presence of a nucleophilic group on a peptide can lead to an interaction between the peptide and the biodegradable polymer of a composition. The nucleophilic groups on the peptide can react with the biodegradable polymer to form acylated products and can catalyze the degradation of the biodegradable polymer. It is well known that when octreotide and poly(DL-lactide-co-glycolide) are combined, especially in an organic solution such as NMP, the octreotide will be acylated and the polymer will be degraded rapidly. The N-terminal conjugation of the octreotide in the present invention contains one primary amine, one secondary amine and one C-terminal carboxylic acid group and is expected to interact and/or react with the polymer similarly to the octreotide itself. […] However, the covalently conjugated octreotide was stable even after 56 days under the same condition. […] After 21 days, the molecular weight of the polymer was reduced by 50%. However, for the polymer in the formulation containing covalently conjugated octreotide, more than 90% of the original molecular weight was retained.

Data set [3] in a line: Stability of the polymer in liquid polymeric formulations (molecular weight by GPC, room temperature). It is filed as physicochemical. The note with it: formulation containing the peptide; for Stability of the polymer in liquid polymeric formulations: polymer molecular weight by GPC, room temperature. How it is done:
as §1, §2, §3

The conditions of data set [4]: within 24 hours; 50/50 poly(DL-lactide-co-glycolide) having a carboxy terminal group, solution in NMP; cited from earlier work.
Data set [5] is described as follows: In vitro release of ghrelin and deacylated ghrelin from formulations in RG503H solution in mPEG350. It is filed as physicochemical. Particulars: about 6% in 40% PLGA RG503H in mPEG350; PBS pH 7.4, 37° C.; two week period; HPLC. How it is done:
40% PLGA RG503H was prepared by appropriately dissolving the polymer in mPEG350. Then ghrelin (Human, Rat 1-5) and deacylated ghrelin (Des-n-Octanoyl-[Ser]^3-ghrelin (Human, Rat 1-5)) were mixed with the polymer solution at about 6% respectively. The formulations were thoroughly mixed to obtain uniform formulations.
The formulation suspensions (about 100 mg) were injected into in 3 mL phosphate buffer saline solution at pH 7.4 with 0.1% sodium azide at 37° C. The receiving fluid was replaced at selected time points with fresh buffer solution, and the removed buffer solution was diluted appropriately with PB at pH 7.4 and was analyzed for drug concentration by HPLC using corresponding standard curves.

The conditions of data set [6]: in vivo; cited from earlier work.
The nature of data set [7]: In vitro release of lysozyme and palmitoylated lysozyme from injectable polymer solution (RG503H in mPEG350). The format is physicochemical. The note with it: about 7% in 40% PLGA RG503H in mPEG350; PBS pH 7.4, 37° C.; UV 280 nm. As to the method: 40% PLGA RG503H was prepared by appropriately dissolving the polymer in mPEG350. Then Palmitoyl-Lysozyme and lysozyme were mixed with the polymer solution at about 7% respectively. The formulations were thoroughly mixed to obtain uniform formulations.
In vitro release of lysozyme and palmitoylated lysozyme from injectable polymer solution. The formulation suspensions (about 100 mg) were injected into in 3 mL phosphate buffer saline solution at pH 7.4 with 0.1% sodium azide at 37° C. The receiving fluid was replaced at selected time points with fresh buffer solution, and the removed buffer solution was diluted appropriately with PB at pH 7.4 and analyzed for drug concentration by UV spectrophotometer at 280 nm against standard curves.

`C[C@@H](O)[C@@H]1NC(=O)[C@H](CCCCN)NC(=O)[C@@H](Cc2c[nH]c3ccccc23)NC(=O)[C@H](Cc2ccccc2)NC(=O)[C@@H](NC(=O)[C@H](N)Cc2ccccc2)CSSC[C@@H](C(=O)N[C@H](CO)[C@@H](C)O)NC1=O` [Octreotide, octreotide]: the “peptide remaining in the polymer matrix acylated” value in data set [1] (after 28 days of in vitro release, matrix dissolved in acetonitrile, HPLC) was “more than 50%”. Further, the “peptide detected in the releasing medium degraded or acylated” value in data set [1] (after 28 days, phosphate buffer pH 7.4, 0.1% sodium azide, 37° C.) is “more than 50%”. In addition, in data set [1] (within 3 hours, phosphate buffer pH 7.4, 0.1% sodium azide, 37° C.), the “peptide detected in the releasing medium degraded or reacted with the polymer” value was “about 30%”. In addition, the “Stability of the peptides in liquid polymeric formulations” value worked out at 2.3 in data set [2] (Day 7), 0.6 in data set [2] (Day 14), 0.3 in data set [2] (Day 21) and 0.0 in data set [2] (Day 56). Besides, the “reaction of the peptide with the polymer” value in data set [2] (after 7 days at room temperature, poly(DL-lactide-co-glycolide) solution in NMP) was “almost completely reacted”. The peptide acylated entry in data set [2] (within 24 hours at room temperature, poly(DL-lactide-co-glycolide) solution in NMP) is listed as “more than 80%”. In addition, the “Stability of the polymer in liquid polymeric formulations” value in data set [3] (Day 0) was determined as 100; in data set [3] (Day 0.1), 95.8; in data set [3] (Day 1), 75.3; in data set [3] (Day 2), 66.1; in data set [3] (Day 3), 65.3; in data set [3] (Day 7), 59.0. Also, the “Stability of the polymer in liquid polymeric formulations” value in data set [3] (Day 14) came out at 57.1; in data set [3] (Day 21) it was 51.3. The “molecular weight of the polymer reduced by” value in data set [3] (after 21 days at room temperature) was 50%.

Take `C[C@@H](O)[C@@H]1NC(=O)[C@H](CCCCN)NC(=O)[C@@H](Cc2c[nH]c3ccccc23)NC(=O)[C@H](Cc2ccccc2)NC(=O)[C@@H](NC(=O)[C@H](N)Cc2ccccc2)CSSC[C@@H](C(=O)N[C@H](CO)[C@@H](C)O)NC1=O` [octreotide acetate]: the “octreotide acylated and/or degraded” value in data set [4] is recorded as “more than 80%”.

As to “Des-n-Octanoyl-[Ser]^3-ghrelin (Human, Rat 1-5) [deacylated ghrelin]”, in data set [5], the “in vitro release rate” value was “much faster release”.

Take Detemir: the circulation half-life in data set [6] was 10.2 ± 1.2 h.

As to ghrelin (Human, Rat 1-5), the “in vitro release rate” value in data set [5] is recorded as “much slower release rate”.

With “native lysozyme: Lysozyme (Mw 14,500), unmodified”, in data set [7], the “initial in vitro release” value is listed as “significant release initially”.
